For `O=C(O)[C@@H]1Cc2ccccc2N1`, the solubility (mole fraction) (in ethanol, 283.15 K) was 0.00168, the solubility (mole fraction) (in ethanol, 288.15 K) was 0.00216 and the solubility (mole fraction) (in ethanol, 292.85 K) was 0.00284. For the same compound, the solubility (mole fraction) (in ethanol, 298.25 K) was 0.00358, the solubility (mole fraction) (in ethanol, 303.05 K) was 0.00454 and the solubility (mole fraction) (in ethanol, 308.15 K) was 0.00572. For the same compound, the solubility (mole fraction) (in ethanol, 313.45 K) was 0.00721, the solubility (mole fraction) (in ethanol, 318.55 K) was 0.00895 and the solubility (mole fraction) (in ethanol, 323.35 K) was 0.0107. For the same compound, the solubility (mole fraction) (in ethanol, 328.75 K) was 0.0138, the solubility (mole fraction) (in ethanol, 333.25 K) was 0.0159 and the solubility (mole fraction) (in ethanol, 338.25 K) was 0.0186. For the same compound, the solubility (mole fraction) (in ethanol, 343.15 K) was 0.022, the solubility (mole fraction) (in isopropanol, 283.15 K) was 0.000941 and the solubility (mole fraction) (in isopropanol, 288.15 K) was 0.0015. For the same compound, the solubility (mole fraction) (in isopropanol, 293.25 K) was 0.00197, the solubility (mole fraction) (in isopropanol, 298.15 K) was 0.0028 and the solubility (mole fraction) (in isopropanol, 303.35 K) was 0.00387. For the same compound, the solubility (mole fraction) (in isopropanol, 307.95 K) was 0.00504, the solubility (mole fraction) (in isopropanol, 313.05 K) was 0.00685 and the solubility (mole fraction) (in isopropanol, 318.65 K) was 0.0093. It also gave a solubility (mole fraction) (in isopropanol, 323.55 K) of 0.0109, a solubility (mole fraction) (in isopropanol, 328.35 K) of 0.0144 and a solubility (mole fraction) (in isopropanol, 333.15 K) of 0.0169. It also gave a solubility (mole fraction) (in isopropanol, 338.35 K) of 0.0202, a solubility (mole fraction) (in isopropanol, 343.05 K) of 0.0241 and a solubility (mole fraction) (in isopropanol, 348.75 K) of 0.0299. The solubility (mole fraction) (in isopropanol, 353.15 K) was 0.0369, the solubility (mole fraction) (in methanol, 283.15 K) was 0.00436 and the solubility (mole fraction) (in methanol, 288.25 K) was 0.00543. The solubility (mole fraction) (in methanol, 292.75 K) was 0.00647, the solubility (mole fraction) (in methanol, 298.15 K) was 0.00809 and the solubility (mole fraction) (in methanol, 302.95 K) was 0.0103. For the same compound, the solubility (mole fraction) (in methanol, 308.05 K) was 0.0122, the solubility (mole fraction) (in methanol, 313.15 K) was 0.0145 and the solubility (mole fraction) (in methanol, 318.25 K) was 0.0166. It also gave a solubility (mole fraction) (in methanol, 323.15 K) of 0.019, a solubility (mole fraction) (in methanol, 328.55 K) of 0.0201 and a solubility (mole fraction) (in methanol, 333.15 K) of 0.026. For the same compound, the solubility (mole fraction) (in n-butanol, 283.15 K) was 0.00228, the solubility (mole fraction) (in n-butanol, 288.35 K) was 0.00316 and the solubility (mole fraction) (in n-butanol, 293.05 K) was 0.00395. The solubility (mole fraction) (in n-butanol, 298.25 K) was 0.00481, the solubility (mole fraction) (in n-butanol, 303.55 K) was 0.00592 and the solubility (mole fraction) (in n-butanol, 308.05 K) was 0.00708. It also gave a solubility (mole fraction) (in n-butanol, 313.65 K) of 0.0083, a solubility (mole fraction) (in n-butanol, 318.45 K) of 0.0102 and a solubility (mole fraction) (in n-butanol, 323.25 K) of 0.0111. The solubility (mole fraction) (in n-butanol, 328.05 K) was 0.0131, the solubility (mole fraction) (in n-butanol, 332.95 K) was 0.0144 and the solubility (mole fraction) (in n-butanol, 338.15 K) was 0.0162. It also gave a solubility (mole fraction) (in n-butanol, 343.55 K) of 0.0186, a solubility (mole fraction) (in n-butanol, 348.95 K) of 0.0217 and a solubility (mole fraction) (in n-butanol, 353.05 K) of 0.0237. The solubility (mole fraction) (in n-butanol, 358.15 K) was 0.0268, the solubility (mole fraction) (in n-propanol, 283.15 K) was 0.000819 and the solubility (mole fraction) (in n-propanol, 288.25 K) was 0.00105. It also gave a solubility (mole fraction) (in n-propanol, 293.05 K) of 0.00153, a solubility (mole fraction) (in n-propanol, 298.35 K) of 0.00211 and a solubility (mole fraction) (in n-propanol, 303.15 K) of 0.00284. The solubility (mole fraction) (in n-propanol, 308.45 K) was 0.0039, the solubility (mole fraction) (in n-propanol, 313.15 K) was 0.00502 and the solubility (mole fraction) (in n-propanol, 318.75 K) was 0.00673. For the same compound, the solubility (mole fraction) (in n-propanol, 323.25 K) was 0.00835, the solubility (mole fraction) (in n-propanol, 328.15 K) was 0.0107 and the solubility (mole fraction) (in n-propanol, 333.05 K) was 0.0135. For the same compound, the solubility (mole fraction) (in n-propanol, 338.15 K) was 0.0167, the solubility (mole fraction) (in n-propanol, 343.55 K) was 0.0214 and the solubility (mole fraction) (in n-propanol, 348.65 K) was 0.0261. The solubility (mole fraction) (in n-propanol, 353.15 K) was 0.0304, the solubility (mole fraction) (in n-propanol, 358.15 K) was 0.0397 and the solubility (mole fraction) (in water, 283.15 K) was 0.000308. The solubility (mole fraction) (in water, 288.35 K) was 0.000309, the solubility (mole fraction) (in water, 292.25 K) was 0.000316 and the solubility (mole fraction) (in water, 297.45 K) was 0.000322. It also gave a solubility (mole fraction) (in water, 302.15 K) of 0.000335, a solubility (mole fraction) (in water, 308.55 K) of 0.000365 and a solubility (mole fraction) (in water, 313.15 K) of 0.000401. For the same compound, the solubility (mole fraction) (in water, 318.25 K) was 0.00046, the solubility (mole fraction) (in water, 323.45 K) was 0.000547 and the solubility (mole fraction) (in water, 328.65 K) was 0.000673. For the same compound, the solubility (mole fraction) (in water, 333.15 K) was 0.000825, the solubility (mole fraction) (in water, 338.55 K) was 0.00108 and the solubility (mole fraction) (in water, 342.95 K) was 0.00138. For the same compound, the solubility (mole fraction) (in water, 348.75 K) was 0.00196, the solubility (mole fraction) (in water, 353.15 K) was 0.0026 and the solubility (mole fraction) (in water, 358.15 K) was 0.00366.
